Test results: PubChem BioAssay (NCI)
Converted amounts (≈) assume the structure as drawn.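 How tested: cells in 96-well plates exposed to compound for 48 hours at five concentrations. GI50 marks 50% less growth. TGI: total growth inhibition.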

Experiments:
Assay in all cases: NCI-60 cell line screen, 48 h
[1] = system: MDA-N
[2] = system: DMS 114 small cell lung
[3] = system: DMS 273 small cell lung
[4] = system: HOP-18 NSCLC
[5] = system: LXFL 529 NSCLC
[6] = system: RXF-631 renal
[7] = system: SNB-78 CNS

Structure (SMILES)	TGI [1]	TGI [2]	TGI [3]	TGI [4]	TGI [5]	TGI [6]	TGI [7]	GI50 [1]
CN=C1OC2(c3ccccc3)C3=C(OC(=NC)N2C)C(=O)OC3(c2ccccc2)N1C (stereo unspecified)	> 100 µM							
O=C(/C=C/c1ccc(Cl)c(Cl)c1)c1cccc2ccccc12		9.51 µM	14.7 µM	31.1 µM	6.64 µM	33.1 µM	26.8 µM	
O=C1C=C(O)C(=Cc2c(O)cc(O)cc2O)C(O)=C1		> 100 µM	> 100 µM	> 100 µM	> 100 µM	> 100 µM	> 100 µM	
Cc1ccc(NC(=O)C(=O)C(C(=O)/C=C/c2ccccc2)C2OC(=O)c3ccccc32)c(C)c1 (stereo unspecified)		> 100 µM			> 100 µM	> 100 µM	> 100 µM	
CC1=NN(c2ccccc2)C(=O)/C1=C\c1ccc([N+](=O)[O-])cc1		50 µM	62.7 µM		> 100 µM	77.4 µM	> 100 µM	
N[C@H](COCc1ccccc1)c1ccccc1		56.3 µM	50 µM	> 89.8 µM	51.5 µM		> 100 µM	
Cc1ccccc1-n1c(N)c(-c2nc3ccccc3[nH]2)sc1=S		59 µM	35 µM	72.8 µM	50.4 µM	49.1 µM	74.8 µM	
NC1=NC(=O)C(CC(=O)Nc2ccc(Cl)cc2Cl)S1 (stereo unspecified)			> 100 µM		> 100 µM		> 100 µM	
Cc1cc(C)c(C2CNCc3cc4c(cc32)CNCC4c2c(C)cc(C)cc2C)c(C)c1 (stereo unspecified)	4.3 µg/mL							2.05 µg/mL (≈ 4.83 µM)
O=Cc1ccc2c(c1I)OCO2			> 100 µM	> 100 µM			> 100 µM	
CC(=O)/C(=C\c1ccccc1O)C(=O)Nc1ccccc1C		> 100 µM		> 100 µM	98.6 µM		98.7 µM	
O=C(O)c1ccccc1NC(=S)c1ccccc1	> 100 µM							
N#CNc1nc(N)c(-c2ccc(Cl)cc2)c(C(=O)Nc2nccs2)n1		> 100 µM	> 100 µM	> 100 µM	> 100 µM		> 100 µM	
c1cc(-c2cn3c(n2)SCC3)ccn1		> 89.6 µM	93.1 µM	> 100 µM	> 100 µM		> 100 µM	
O=C(O)CCNS(=O)(=O)c1ccc([N+](=O)[O-])cc1			> 100 µM	> 100 µM	> 100 µM	> 100 µM		
N#CC1(C#N)C(c2ccccc2)C=CC12OCCCO2 (stereo unspecified)		67.8 µM	> 100 µM	> 100 µM	95.2 µM	> 100 µM	> 100 µM	
CCOc1ccc(NC(=O)CCc2nnc(SC)o2)cc1		> 100 µM	> 100 µM	> 100 µM	> 100 µM		> 100 µM	
ClC1=C(Cl)C(Cl)(Cl)c2c3c(c4c(c21)C(Cl)(Cl)C(Cl)=C4Cl)C(Cl)(Cl)C(Cl)=C3Cl		> 100 µM	> 100 µM		> 100 µM			

Structure (SMILES)	TGI [1]	TGI [2]	TGI [3]	TGI [4]	TGI [5]	TGI [6]	TGI [7]	GI50 [1]
CC1=C(CC2C(=O)N(c3ccccc3)S(=O)(=O)NC2C)C(=O)N(c2ccccc2)S(=O)(=O)N1C (stereo unspecified)		> 100 µM	> 100 µM		> 100 µM	> 100 µM	> 100 µM	
Oc1cc(-n2cccn2)c(O)cc1-n1cccn1	33.5 µM	> 67.6 µM	> 58.2 µM	> 100 µM	34.7 µM	> 100 µM	> 68.7 µM	
COc1ccc(OC(=O)CC2Cc3cc(OC)c(OC)c(OC)c3-c3ccc(SC)c(=O)cc32)cc1 (stereo unspecified)		5.52 µM	> 100 µM		11.3 µM	> 100 µM		
N#CCN1C(=O)c2cc([N+](=O)[O-])cc3cc([N+](=O)[O-])cc(c23)C1=O		37.5 µM	> 100 µM	> 100 µM	> 50.6 µM	> 60.6 µM	> 58 µM	
C1CSCCSCCCSCCSCCCSCCSCCCSCCSC1	> 100 µM							
CC(C)(C)c1cc2nc(c1)C(C(F)(F)F)(C(F)(F)F)OB(Br)OC2(C(F)(F)F)C(F)(F)F		0.421 µM	0.107 µM		13.9 µM	5.35 µM	1.56 µM	
CC1=C(C(=O)Nc2ccc(Cl)c(Cl)c2)C(c2ccc([N+](=O)[O-])cc2)C(C(=O)Nc2ccc(Cl)c(Cl)c2)=C(C)N1		9.66 µM	9.14 µM	19.2 µM	11.8 µM	6.69 µM	26.7 µM	
COc1cc(C2(C)SCCCS2)cc(OC)c1OC		> 100 µM	> 100 µM	> 100 µM	> 100 µM	> 100 µM		
Cc1cc(=O)c2c(O)cc3c(c2o1)CC=C(COC1OC(COC2OC(CO)C(O)C(O)C2O)C(O)C(O)C1O)CO3 (stereo unspecified)		> 100 µM	> 100 µM		> 100 µM		> 100 µM	
O=C(NCCNCCO)c1cccc2ccc(-c3ccccc3)nc12		19.8 µM	14.1 µM	45.8 µM		12.1 µM	29.1 µM	
COc1ccc(-c2[nH]c3ccccc3c2CCNS(=O)(=O)c2ccc(C)cc2)cc1		> 10 µM	> 10 µM	> 10 µM	> 10 µM	> 10 µM	> 10 µM	
Fc1cccc(F)c1C(Nc1nncs1)Nc1nncs1	> 100 µM							
c1ccc2c(c1)CCc1c-2n[nH]c1-c1[nH]nc2c1CCc1ccccc1-2		> 100 µM	> 100 µM	> 100 µM	> 100 µM	> 100 µM	> 100 µM	
O=C1OC(=O)c2c1c(-c1ccccc1)nc1ccccc21		> 100 µM	> 100 µM		> 100 µM	> 100 µM	> 100 µM	
CCCC(S(=O)(=O)c1ccccc1)S(=O)(=O)c1ccccc1		> 100 µM	> 100 µM		> 100 µM	> 100 µM	> 100 µM	
O=C1c2ccccc2N2OC3(N4CCCC4)CCCCC3C12c1ccccc1 (stereo unspecified)		28.4 µM	30.9 µM	> 100 µM	27.7 µM		33.9 µM	
COC(=O)C(C(=O)C(=O)Nc1ccc([N+](=O)[O-])cc1)c1nc2ccc([N+](=O)[O-])cc2[nH]c1=O (stereo unspecified)		> 100 µM	> 100 µM	> 100 µM	> 100 µM	> 100 µM	> 100 µM	
Cc1cccc(NC(=O)/C(=N\N)C(c2cnc3ccc([N+](=O)[O-])cc3n2)[N+](=O)[O-])c1C (stereo unspecified)		> 100 µM	> 100 µM	> 100 µM	> 100 µM	> 100 µM		
